Assay results from ChEMBL document CHEMBL5665443, “Enzyme Inhibitor Single Concentration assay results for EUbOPEN Chemogenomics Library” (2024).

What was measured:
[1] = molecular target: Methyl-CpG-binding domain protein 4 (Homo sapiens) (UniProt O95243); conditions: Hit No;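 also: MBD4 activity read as fluorescence at 594 nm from cleavage and release of a quenched duplex DNA oligonucleotide, with APE1 coupled to incise the strand and raise turnover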
[2] = molecular target: T1, Endonuclease 8-like 2 (Homo sapiens) (UniProt Q969S2); conditions: Compound Concentration 10.0 uM, Hit No;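 also: fluorescence at 594 nm reports NEIL2 cutting and release of a quenched double-stranded DNA oligo substrate, reduced signal read as inhibition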
T1 sequence (whole entry): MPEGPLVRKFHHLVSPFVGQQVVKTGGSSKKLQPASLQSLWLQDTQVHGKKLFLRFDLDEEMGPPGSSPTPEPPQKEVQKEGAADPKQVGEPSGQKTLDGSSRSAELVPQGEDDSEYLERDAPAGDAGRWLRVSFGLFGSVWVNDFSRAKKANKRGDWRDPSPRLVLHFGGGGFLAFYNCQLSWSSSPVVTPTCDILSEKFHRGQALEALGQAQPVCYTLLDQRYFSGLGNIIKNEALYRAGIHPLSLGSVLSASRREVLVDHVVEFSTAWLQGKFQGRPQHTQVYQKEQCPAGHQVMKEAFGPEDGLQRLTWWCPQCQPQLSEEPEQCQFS
Description: Inhibition of NEIL2 by quantifying inhibition of NEIL2-mediated cleavage and dissociation of quenched duplex DNA oligonucleotides, measured as fluorescence at 594 nm.

[3] = molecular target: G/T mismatch-specific thymine DNA glycosylase (Homo sapiens) (UniProt Q13569); conditions: Hit No;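 also: human TDG cleavage of quenched duplex DNA oligonucleotides coupled to APE1, strand release read as fluorescence at 594 nm, inhibition of TDG activity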
[4] = molecular target: T2, Single-strand selective monofunctional uracil DNA glycosylase (Homo sapiens) (UniProt Q53HV7); conditions: Hit No;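 also: enzymatic SMUG1 assay coupled with APE1, reading fluorescence at 594 nm released when a quenched double-stranded DNA oligonucleotide substrate is cleaved and separated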
T2 sequence (whole entry): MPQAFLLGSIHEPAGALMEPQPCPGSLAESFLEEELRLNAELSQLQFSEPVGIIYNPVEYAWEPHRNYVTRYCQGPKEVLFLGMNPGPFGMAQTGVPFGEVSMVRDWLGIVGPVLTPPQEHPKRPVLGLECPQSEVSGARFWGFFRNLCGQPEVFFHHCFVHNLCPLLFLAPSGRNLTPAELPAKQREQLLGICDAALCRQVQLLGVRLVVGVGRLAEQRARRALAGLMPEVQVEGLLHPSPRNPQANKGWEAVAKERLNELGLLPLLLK

[5] = molecular target: T3, Endonuclease III-like protein 1 (Homo sapiens) (UniProt P78549); conditions: Hit No;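 also: enzyme assay tracking NTHL1 cutting and release of a quenched double-stranded DNA oligo substrate, read as fluorescence at 594 nm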
T3 sequence (whole entry): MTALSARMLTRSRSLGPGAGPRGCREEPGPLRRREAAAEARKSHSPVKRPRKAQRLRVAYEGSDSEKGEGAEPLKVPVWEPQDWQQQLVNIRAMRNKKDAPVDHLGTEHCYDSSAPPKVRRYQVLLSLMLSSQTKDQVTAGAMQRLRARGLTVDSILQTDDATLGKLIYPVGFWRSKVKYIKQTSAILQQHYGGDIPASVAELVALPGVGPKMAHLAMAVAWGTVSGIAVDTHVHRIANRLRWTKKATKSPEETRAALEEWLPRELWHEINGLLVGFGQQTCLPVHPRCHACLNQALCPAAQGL

[6] = molecular target: Uracil-DNA glycosylase (Homo sapiens) (UniProt P13051); conditions: Hit No;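 also: UNG excision on a quenched double-stranded DNA oligo probe, with APE1 added for strand incision and turnover, read as fluorescence at 594 nm as strands separate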
[7] = molecular target: Endonuclease 8-like 1 (Homo sapiens) (UniProt Q96FI4); conditions: Hit No;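 also: fluorescence at 594 nm from quenched duplex DNA oligonucleotides released by NEIL1 cleavage and strand separation, reported as reduction of this enzyme activity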
[8] = molecular target: N-glycosylase/DNA lyase (Homo sapiens) (UniProt O15527); conditions: Compound Concentration 10.0 uM, Hit No;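 also: OGG1 cleavage of a quenched duplex DNA oligonucleotide, coupled to APE1 for strand incision, read as fluorescence at 594 nm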
Sequence of N-glycosylase/DNA lyase (Homo sapiens) (O15527 whole entry): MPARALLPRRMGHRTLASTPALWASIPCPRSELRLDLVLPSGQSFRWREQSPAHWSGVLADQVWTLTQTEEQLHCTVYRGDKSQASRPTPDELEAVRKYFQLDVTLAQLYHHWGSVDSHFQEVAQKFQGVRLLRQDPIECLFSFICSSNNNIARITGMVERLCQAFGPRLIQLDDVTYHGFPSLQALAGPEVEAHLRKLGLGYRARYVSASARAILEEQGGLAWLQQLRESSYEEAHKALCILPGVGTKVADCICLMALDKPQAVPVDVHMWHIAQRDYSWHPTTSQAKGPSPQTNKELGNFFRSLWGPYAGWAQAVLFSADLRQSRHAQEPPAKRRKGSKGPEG
Description: Inhibition of OGG1 by quantifying inhibition of OGG1-mediated cleavage and dissociation of quenched duplex DNA oligonucleotides, measured as fluorescence at 594 nm. To generate a functional strand incision and increase turn-over this assay is coupled to APE1.

Sequence of G/T mismatch-specific thymine DNA glycosylase (Homo sapiens) (Q13569 whole entry): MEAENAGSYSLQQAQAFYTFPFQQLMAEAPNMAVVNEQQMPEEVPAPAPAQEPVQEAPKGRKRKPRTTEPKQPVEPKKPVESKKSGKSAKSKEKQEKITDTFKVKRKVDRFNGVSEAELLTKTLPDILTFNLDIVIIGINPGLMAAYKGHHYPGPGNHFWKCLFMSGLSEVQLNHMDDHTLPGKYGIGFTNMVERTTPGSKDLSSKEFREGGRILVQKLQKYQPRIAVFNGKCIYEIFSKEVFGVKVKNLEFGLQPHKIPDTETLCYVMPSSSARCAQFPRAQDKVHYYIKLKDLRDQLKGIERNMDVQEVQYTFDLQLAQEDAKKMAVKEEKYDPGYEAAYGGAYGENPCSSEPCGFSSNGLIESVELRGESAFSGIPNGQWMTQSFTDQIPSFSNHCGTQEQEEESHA
Sequence of Uracil-DNA glycosylase (Homo sapiens) (P13051 whole entry): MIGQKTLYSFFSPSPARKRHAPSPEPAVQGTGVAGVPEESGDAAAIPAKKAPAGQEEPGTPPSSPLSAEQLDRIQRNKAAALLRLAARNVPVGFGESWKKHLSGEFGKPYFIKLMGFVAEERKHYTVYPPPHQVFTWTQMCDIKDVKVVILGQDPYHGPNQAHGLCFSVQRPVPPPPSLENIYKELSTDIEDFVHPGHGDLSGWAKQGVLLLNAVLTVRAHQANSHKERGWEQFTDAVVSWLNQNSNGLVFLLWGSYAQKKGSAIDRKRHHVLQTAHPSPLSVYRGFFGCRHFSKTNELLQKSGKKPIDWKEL
Sequence of Methyl-CpG-binding domain protein 4 (Homo sapiens) (O95243 whole entry, the tested form may be a part): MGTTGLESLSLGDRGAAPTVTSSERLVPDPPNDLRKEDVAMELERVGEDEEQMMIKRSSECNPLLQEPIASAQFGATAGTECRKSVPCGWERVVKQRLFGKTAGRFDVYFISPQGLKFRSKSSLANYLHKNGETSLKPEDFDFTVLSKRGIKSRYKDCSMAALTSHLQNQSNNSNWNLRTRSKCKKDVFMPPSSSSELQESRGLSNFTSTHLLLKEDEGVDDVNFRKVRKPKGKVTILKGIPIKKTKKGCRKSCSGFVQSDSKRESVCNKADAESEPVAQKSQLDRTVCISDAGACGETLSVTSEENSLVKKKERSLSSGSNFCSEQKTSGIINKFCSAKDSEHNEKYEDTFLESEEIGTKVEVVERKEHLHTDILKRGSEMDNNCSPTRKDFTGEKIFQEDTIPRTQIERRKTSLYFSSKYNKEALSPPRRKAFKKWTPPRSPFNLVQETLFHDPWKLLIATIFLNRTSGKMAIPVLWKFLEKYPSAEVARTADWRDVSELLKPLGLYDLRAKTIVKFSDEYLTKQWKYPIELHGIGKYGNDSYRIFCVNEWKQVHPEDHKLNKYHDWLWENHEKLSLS
Sequence of Endonuclease 8-like 1 (Homo sapiens) (Q96FI4 whole entry): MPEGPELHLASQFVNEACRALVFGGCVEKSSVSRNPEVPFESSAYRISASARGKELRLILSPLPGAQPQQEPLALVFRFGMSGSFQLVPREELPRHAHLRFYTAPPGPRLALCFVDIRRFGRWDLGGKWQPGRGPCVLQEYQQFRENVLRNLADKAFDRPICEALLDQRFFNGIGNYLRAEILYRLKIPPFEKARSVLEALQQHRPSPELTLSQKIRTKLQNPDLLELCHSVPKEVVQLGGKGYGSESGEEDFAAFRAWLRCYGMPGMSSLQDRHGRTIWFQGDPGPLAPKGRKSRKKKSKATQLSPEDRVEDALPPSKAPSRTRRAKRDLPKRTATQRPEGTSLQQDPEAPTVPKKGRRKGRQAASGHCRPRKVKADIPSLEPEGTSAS

Row | SMILES | inhibition ([1]; Compound Concentration 10.0 uM) | inhibition [2] | inhibition ([3]; Compound Concentration 10.0 uM) | inhibition ([4]; Compound Concentration 10.0 uM) | inhibition ([5]; Compound Concentration 10.0 uM) | inhibition ([6]; Compound Concentration 10.0 uM) | inhibition ([7]; Compound Concentration 10.0 uM) | inhibition [8] | inhibition ([1]; Compound Concentration 1.0 uM) | inhibition ([3]; Compound Concentration 1.0 uM) | inhibition ([4]; Compound Concentration 1.0 uM) | inhibition ([5]; Compound Concentration 1.0 uM) | inhibition ([6]; Compound Concentration 1.0 uM) | inhibition ([7]; Compound Concentration 1.0 uM)
1 | Cn1ncnc1COc1nn2c(-c3c(F)cccc3F)nnc2cc1C1CCC1 | -5.71% | -3.41% | 15.4% | 1.23% | 22.9% | -7.24% | 7.71% | – | – | – | – | – | – | –
2 | CO[C@@H](C)c1c(Nc2ccc([C@@H](N(C)C(=O)C3CCS(=O)(=O)CC3)C(F)(F)F)cc2)cnc2cc(Cl)nn12 | 93.9% | 0.0213% | 42.7% | 13.4% | -9.83% | 0.795% | -6.35% | – | – | – | – | – | – | –
3 | CCOc1cc(N2CCC(O)CC2)ccc1Nc1ncc2c(n1)N(C1CCCC1)CCC(=O)N2C | -5.19% | – | 36.7% | 12.4% | -6.19% | -0.0214% | -5.28% | – | – | – | – | – | – | –
4 | CN(C)C(=O)c1sc2nc(N3CCC(S(C)(=O)=O)CC3)cc(C(F)(F)F)c2c1N | 1.76% | – | -5.21% | -2.07% | 2.05% | – | -3.24% | -1.24% | – | – | – | – | – | –
5 | O=C(O)[C@@H]1[C@@H](Cn2nnc3ccccc3c2=O)CC[C@H]1C(=O)c1ccc(OCCC2CCOCC2)cc1 | 57.8% | – | 49.2% | 18.6% | -5.23% | 2.54% | – | 7.75% | – | – | – | – | – | –
6 | C[C@@H]1CN(c2nccc(Nc3ccc4c(c3)n(CCC(C)(C)O)c(=O)n4C)n2)C[C@H](C)C1(F)F | 56.2% | -8.14% | 98.6% | 7.55% | -0.63% | 5.07% | -3.77% | – | – | – | – | – | – | –
7 | N#CC1(c2ccccn2)CCN(Cc2cc(C(=O)O)c(=O)n3ccccc23)CC1 | 93% | 0.531% | 45.8% | – | -9.18% | 1.66% | -0.139% | -3.75% | – | – | – | – | – | –
8 | CCOc1cn(-c2ccc(F)cc2C)nc1C(=O)Nc1ccc(Oc2ccnc3cc(OC)c(OC)cc23)c(F)c1 | – | – | – | – | – | – | – | – | 31.6% | 46.5% | 21.7% | -2% | 1.39% | 0.138%
9 | COc1ccc([C@@H]2Sc3ccccc3N(CCN(C)C)C(=O)[C@@H]2OC(C)=O)cc1 | -5.04% | – | -1.73% | 0.325% | 30.3% | -4.36% | 3.71% | – | – | – | – | – | – | –
10 | CCC1(C2=NCCN2)Cc2ccccc2O1 (configuration not stated) | 3.23% | -5.22% | 2.85% | – | 1.19% | -0.713% | -9.99% | -0.183% | – | – | – | – | – | –
11 | CC(C)c1c(NC(=O)Nc2ccc(Cl)cc2)c(=O)n(-c2ccccc2)n1C | 31.2% | -6.97% | -4.69% | -6.14% | 12.9% | – | 4.99% | -7% | – | – | – | – | – | –
12 | CSc1cccnc1N1CCN(Cc2nc3ccccc3[nH]2)CC1 | 54.7% | – | 19.8% | 6.69% | -5.89% | 0.535% | – | 6.57% | – | – | – | – | – | –
13 | C[C@H](NC(=O)c1cnc2n1[C@](C)(Cc1ccc(C#N)cc1)C(=O)N2c1cc(Cl)c(F)c(Cl)c1)C(=O)NC1(c2ccccn2)CC1 | 60.9% | -4.83% | 52.5% | 22.8% | -4.57% | 7.8% | 5.16% | – | – | – | – | – | – | –
14 | COc1ccnc(N2CCC3(CCCN(Cc4c[nH]c5ccccc45)C3=O)CC2)n1 | -0.547% | -0.983% | 4.73% | 15.5% | 6.32% | – | 9.14% | -2.11% | – | – | – | – | – | –
15 | COc1ncc(F)cc1CNc1ccc(Cc2c[nH]c3ncc(C)cc23)c(F)n1 | – | 2.39% | 37.9% | 18.6% | -7.58% | 6.92% | 1.33% | 5.69% | – | – | – | – | – | –
16 | OCCN1CCN(CCCN2c3ccccc3Sc3ccc(Cl)cc32)CC1 | – | 12.5% | 3.7% | -0.808% | 3.39% | -5.33% | 17.1% | -8.6% | – | – | – | – | – | –
17 | COc1cc(C(=O)O)ncc1C#Cc1ccccc1NS(=O)(=O)c1cccc2c(N(C)C)ccnc12 | 66.6% | 6.91% | 46.3% | 6.29% | -8.52% | 2.52% | -0.29% | – | – | – | – | – | – | –
18 | CC1=C(C(=O)Nc2cc3cn[nH]c3cc2F)C(c2ccc(C(F)(F)F)cc2)CC(=O)N1 (configuration not stated) | 18% | 3.2% | 34.3% | 22.4% | -2.7% | 7.25% | 4.1% | – | – | – | – | – | – | –
19 | COc1cc(Nc2nccc(-c3cnn4nc(OC)ccc34)n2)cc(C(F)(F)F)c1 | – | -0.842% | 8.41% | 1.75% | 0.785% | -0.0969% | 11.1% | 8.51% | – | – | – | – | – | –
20 | Cn1cc(-c2ccc3occ(-c4cccc(-c5ccncc5)c4)c3n2)cn1 | -1.5% | -5.69% | 42.6% | 13.1% | -8.98% | -1.77% | -1.18% | – | – | – | – | – | – | –
21 | C[C@H]1[C@H]2CC[C@H]3[C@@H]4CC=C5C[C@@H](N(C)C)CC[C@]5(C)[C@H]4CC[C@]23CN1C | – | -7.72% | 5.99% | 4.86% | 7.05% | -8.6% | -0.649% | -2.15% | – | – | – | – | – | –
22 | CNC[C@H](O)c1cccc(O)c1 | -3.74% | 7.25% | -5.83% | -2.99% | -9.8% | – | -4.8% | -3.42% | – | – | – | – | – | –
23 | Cc1cc2c(-c3ccco3)cnc(N[C@@H]3CCN(C)C[C@H]3C(=O)NC3CCCCC3)c2[nH]c1=O | 58.5% | – | 33.3% | – | -9.18% | -3.36% | – | – | – | – | – | – | – | –
